Assay results as given in PMC10619133, “The catechol moiety of obafluorin is essential for antibacterial activity” (RSC Chemical Biology, 2023).
Values after ≈ are worked out from the molar mass of the structure shown. “Also recorded” adds a separate entry of the source. Read-outs that look alike come from different tables or passages of the source.

How the values were obtained:
[1] = tested on: E. coli NR698; assay: Spot-on-lawn MIC bioassay; type: cell-based; conditions: Escherichia coli
Procedure: (§1) Indicator strains were grown for 16–18 h in LB (5 mL) by inoculation from a single colony. An aliquot of the resulting culture (500 μL) was then used to inoculate LB (50 mL in 250 mL Erlenmeyer flasks), followed by orbital shaking at 250 rpm until they reached an OD600 of 0.3–0.4. These cultures were then diluted 1 : 10 with molten soft nutrient agar (SNA), before pouring into appropriately sized Petri dishes to set. Serial dilutions of the test compounds (from 256 μg mL^−1 to 1 μg mL^−1 plus an additional sample at 1000 μg mL^−1) were prepared in acetonitrile (ACN), and 4 μL of each sample was applied directly onto the SNA surface. Kanamycin (50 μg mL^−1), apramycin (50 μg mL^−1) or aureobasidin A (0.2 μg mL^−1) were used as positive controls, as appropriate, and ACN or water (4 μL) were used as negative controls. […] Experiments were carried out in at least triplicate for each strain.

[2] = target: PfThrRS (Pseudomonas fluorescens, UniProt C3JZN7); assay: Aminoacylation assay; type: biochemical, P. fluorescens; conditions: for IC100: read-out: concentration of full inhibition
Procedure: (§2) To measure the effects of 1–4 on ThrRS canonical tRNA charging activity, an assay modified from that reported by Ruan et al.[53] was used, where active enzyme was incubated with its necessary substrates and its activity measured using ^14C labeled Thr and a liquid scintillation counter. Purified ThrRS protein (10 nM) was pre-incubated with varying concentrations of compounds 1–4 or ACN for 10 min. After pre-incubation, ThrRS samples were added to a master reaction mixture with the final component concentrations of HEPES (100 mM, pH 7.0), ATP (4 mM), MgCl2 (10 mM), L-[U-^14C]threonine (50 μM, Moravek Inc.), and tRNA^Thr (5 μM). This mixture was incubated at room temperature for 10 min, with samples taken at 1, 2.5, 5, and 10 min. At each time point, a 7 μL aliquot was spotted onto a 5% trichloroacetic acid (TCA) presoaked 3 MM Whatman paper (Cytiva) squares (repeated in triplicate). After allowing the spots to dry, the Whatman paper was washed three times with 5% TCA, and once with 95% EtOH. The Whatman paper was dried and the counts on each square of paper analyzed using a Tri-Carb 2910 TR liquid scintillation counter using Hydrofluor Liquid Scintillation Fluid (National Diagnostics). To calculate IC50 values, fractional initial velocities (velocity of inhibited reaction/velocity in the absence of inhibitor) were plotted against the log of 1 concentration and then fitted to eqn (1), using GraphPad Prism.1 [drawing 1]

[3] = tested on: MRSA; assay: Spot-on-lawn MIC bioassay; type: cell-based, Methicillin-resistant Staphylococcus aureus; conditions: spot-on-lawn; for MIC: Staphylococcus aureus, MRSA; for antibacterial activity (in words): Fig. S13
Procedure: as §1
(§3) The method was the same as for the antibacterial MIC assays described above, with the following modifications: for excess iron, Fe(NO3)3·9H2O stock (400 mM) was added to give a final concentration of 1.5 or 2.0 mM; for iron depletion, bipy stock (1 M) was added to give a final concentration of 150 μM. For MRSA, 1 was further diluted to 0.5 0.25 and 0.125 μg mL^−1 due to a decrease in MIC under excess iron conditions. The general effect of excess iron on the activity of alternative antibiotics was determined by performing a similar serial dilution of carbenicillin, kanamycin, streptomycin, nitrofurantoin and chloramphenicol in the presence of Fe^3+.

[4] = tested on: S. cerevisiae; assay: Spot-on-lawn MIC bioassay; type: cell-based, S. cerevisiae NCYC 2939; conditions: Saccharomyces cerevisiae
Procedure: as §1

[5] = tested on: E. coli 25922; assay: Spot-on-lawn MIC bioassay; type: cell-based, E. coli ATCC 25922; conditions: for MIC: Escherichia coli, 25922, spot-on-lawn; for lowest concentration which gave an inhibition zone: - Fe3+
Procedure: as §1, §3

[6] = tested on: B. subtilis; assay: Spot-on-lawn MIC bioassay; type: cell-based, B. subtilis EC 1524; conditions: Bacillus subtilis
Procedure: as §1

[7] = Hydrolysis of the β-lactone in HEPES buffer monitored by HPLC; type: physicochemical; conditions: for hydrolysis of β-lactone (in words): pH 8.0, HEPES 100 mM, 30 min, no Fe^3+; for effect of added Fe^3+ on hydrolysis (in words): Fe^3+ 1 mM, HEPES 100 mM, pH 6.0–8.0, 30 min
Procedure: Hydrolysis of 1–4 was analysed on an Agilent 1290 system fitted with an Agilent LC/MSD MS spectrometer. A Kinetex XB-C18, 100 × 4.6 mm, 5 μM column (Phenomenex) was used with a gradient elution: ACN/0.1% (v/v) FA (H2O) gradient from 5/95 for 0–0.5 min, 5/95 to 98/2 0.5–12 min, 98/2 for 12–13 min, gradient to 5/95 13–13.5 min and 5/95 for 13.5–15 min. The flow rate was 0.6 mL min^−1 and the injection volume of each sample 5 μL. DAD signals were analysed at 270 nm, with a bandwidth of 4 nm. MS were recorded in positive mode using an atmospheric pressure ionisation electrospray (API-ES) ion source with a capillary voltage of 3000 V. The drying gas temperature was 350 °C with a flow rate of 12 L min^−1. The scan parameters were: mass range = 200–1500; fragmentor = 70; gain EMV = 1.0; threshold = 150; step-size = 0.10. Data were analysed with Agilent ChemStation software.
Five solutions of HEPES buffer (111 mM) were prepared at pH 6.0, 6.5, 7.0, 7.5 and 8.0 respectively. A further five solution of HEPES buffer (111 mM) with Fe(NO3)3.9H2O ([…]) were also prepared at pH 6.0, 6.5, 7.0, 7.5, 8.0 respectively. Stock solutions of 1–4 (10 mM) were prepared in DMSO. For each hydrolysis experiment, stock solution of 1–4 (10 μL) was added the HEPES buffer (90 μL) or the HEPES + Fe(NO3)3.9H2O buffer (90 μL), to give final concentrations of HEPES (100 mM), 1–4 (1 mM) and Fe^3+ (0 or 1 mM). The reaction mixtures were shaken using a bench top vortex and left to stand for 30 min, after which the samples were analysed by HPLC using the Analytical HPLC method. All stock solutions of 1–4 were tested at every pH, with and without Fe^3+ and all experiments were repeated in triplicate.

[8] = target: T1, EcThrRS (Escherichia coli, UniProt P0A8M3); assay: Aminoacylation assay; type: biochemical, E. coli; conditions: for IC50 / concentration at which complete inhibition was observed: enzyme 10 nM; for IC50: 10 min preincubation with compound; for fold less potent than 1: ratio of IC50 values
T1 construct: His6 (N); made in house; host or cells: E. coli NiCo21(DE3)
Procedure: as §2

[9] = tested on: S. aureus; assay: Bioassay of control antibiotics with and without additional Fe3+; type: cell-based
Procedure: as §3

[10] = NR698, read-out: Minimum inhibitory concentration
[11] = Figure S8 legend, read-out: Minimum inhibitory concentration
[12] = standard conditions, read-out: MIC
[13] = Figure S12 legend, read-out: Minimum inhibitory concentration
[14] = Figure S10 legend, read-out: Minimum inhibitory concentration
[15] = Figure S9 legend, read-out: Minimum inhibitory concentration

Sequence of PfThrRS (C3JZN7 whole entry): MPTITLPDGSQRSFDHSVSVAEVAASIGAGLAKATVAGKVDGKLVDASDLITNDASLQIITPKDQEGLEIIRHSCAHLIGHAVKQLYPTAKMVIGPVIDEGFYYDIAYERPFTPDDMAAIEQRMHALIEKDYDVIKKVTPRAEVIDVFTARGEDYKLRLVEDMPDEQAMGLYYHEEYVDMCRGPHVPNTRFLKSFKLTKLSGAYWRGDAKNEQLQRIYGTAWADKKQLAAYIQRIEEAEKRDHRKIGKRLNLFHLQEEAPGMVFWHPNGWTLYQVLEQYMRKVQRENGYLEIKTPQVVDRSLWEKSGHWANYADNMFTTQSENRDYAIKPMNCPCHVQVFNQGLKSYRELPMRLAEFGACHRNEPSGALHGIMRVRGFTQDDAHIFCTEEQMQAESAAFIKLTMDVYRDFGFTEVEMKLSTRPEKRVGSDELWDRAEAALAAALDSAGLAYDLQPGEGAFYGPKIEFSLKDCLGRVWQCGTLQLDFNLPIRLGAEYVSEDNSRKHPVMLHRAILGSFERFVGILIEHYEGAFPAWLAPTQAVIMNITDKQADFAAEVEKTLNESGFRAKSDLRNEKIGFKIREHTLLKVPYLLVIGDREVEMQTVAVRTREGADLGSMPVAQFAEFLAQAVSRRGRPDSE
T1 sequence (P0A8M3 whole entry): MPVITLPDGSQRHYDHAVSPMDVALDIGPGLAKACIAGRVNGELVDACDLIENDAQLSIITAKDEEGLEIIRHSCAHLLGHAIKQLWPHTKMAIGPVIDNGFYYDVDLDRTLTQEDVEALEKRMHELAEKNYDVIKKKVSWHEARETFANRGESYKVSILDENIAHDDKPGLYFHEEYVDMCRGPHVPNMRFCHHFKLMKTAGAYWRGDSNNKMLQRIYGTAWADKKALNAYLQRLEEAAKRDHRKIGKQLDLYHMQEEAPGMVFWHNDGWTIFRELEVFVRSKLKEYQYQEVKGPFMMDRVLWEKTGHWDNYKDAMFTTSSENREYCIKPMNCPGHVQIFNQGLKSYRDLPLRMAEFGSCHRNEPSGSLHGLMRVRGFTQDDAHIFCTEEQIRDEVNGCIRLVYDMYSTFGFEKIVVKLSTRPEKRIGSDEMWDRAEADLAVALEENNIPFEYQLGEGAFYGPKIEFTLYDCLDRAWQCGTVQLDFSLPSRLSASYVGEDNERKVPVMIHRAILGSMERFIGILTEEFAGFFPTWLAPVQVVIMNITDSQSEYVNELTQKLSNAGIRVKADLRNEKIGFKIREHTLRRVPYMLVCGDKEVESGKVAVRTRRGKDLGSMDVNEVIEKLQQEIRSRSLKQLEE

SMILES: O=C(N[C@@H]1C(=O)O[C@@H]1Cc1ccc([N+](=O)[O-])cc1)c1ccccc1 [compound 4, BA-obafluorin]
- MIC ([1]; NR698): > 1000 µg/mL
- MIC [1, 10]: > 1000 µg/mL
- IC50 ([2]; enzyme 10 nM, 10 min preincubation with compound): not inhibited; also recorded: No inhibition
- inhibition of aminoacylation (in words) ([2]; up to 25000 nM): no significant inhibition
- MIC [3, 11]: > 1000 µg/mL
- MIC [3, 12]: 1000 µg/mL (≈ 3060 µM)
- MIC [4, 13]: > 1000 µg/mL
- MIC [4, 12]: > 1000 µg/mL
- MIC [5, 14]: > 1000 µg/mL
- MIC [5, 12]: > 1000 µg/mL
- MIC [6, 15]: > 1000 µg/mL
- MIC [6, 12]: > 1000 µg/mL
- hydrolysis of β-lactone (in words) [7]: no hydrolysis; also recorded: stable to hydrolysis
- IC50 [8]: No inhibition
- inhibition of aminoacylation (in words) ([8]; up to the highest concentration tested (0–25 μM)): no significant inhibition

SMILES: O=C(N[C@@H]1C(=O)O[C@@H]1Cc1ccc([N+](=O)[O-])cc1)c1cccc(O)c1 [compound 3, 3-HBA-obafluorin]
- MIC ([1]; NR698): > 1000 µg/mL
- MIC [1, 10]: > 1000 µg/mL
- IC100 ([2]; enzyme 10 nM): 5 µM
- MIC [3, 11]: 1000 µg/mL (≈ 2920 µM)
- MIC [3, 12]: 1000 µg/mL (≈ 2920 µM)
- MIC [4, 13]: > 1000 µg/mL
- MIC [4, 12]: > 1000 µg/mL
- MIC [5, 14]: > 1000 µg/mL
- MIC [5, 12]: > 1000 µg/mL
- MIC [6, 15]: 1000 µg/mL (≈ 2920 µM)
- MIC [6, 12]: 1000 µg/mL (≈ 2920 µM)
- effect of added Fe^3+ on hydrolysis (in words) [7]: no effect
- hydrolysis of β-lactone (in words) [7]: mainly hydrolysed
- concentration at which complete inhibition was observed [8]: 5000 nM
- IC50 ([8]; read-out: IC50): 930 ± 80 nM
- fold less potent than 1 [8]: ~30 fold

SMILES: CC1(C)S[C@@H]2[C@H](NC(=O)C(C(=O)O)c3ccccc3)C(=O)N2[C@H]1C(=O)O (some centres unmarked) [Carbenicillin, carbenicillin, reference compound]
- lowest concentration which gave an inhibition zone [5]: 1000 µg/mL
- lowest concentration which gave an inhibition zone [9]: 50 µg/mL

SMILES: COC(=O)[C@@H](NC(=O)c1cccc(O)c1O)[C@H](O)Cc1ccc([N+](=O)[O-])cc1 [compound 6, β-lactone methanolysed obafluorin]
- antibacterial activity (in words) [3]: inactive

SMILES: O=C(N[C@H](CO)[C@H](O)c1ccc([N+](=O)[O-])cc1)C(Cl)Cl [Chloramphenicol, chloramphenicol, reference compound]
- lowest concentration which gave an inhibition zone [5]: 1000 µg/mL
- lowest concentration which gave an inhibition zone [9]: 1000 µg/mL

SMILES: CN[C@@H]1[C@@H](O[C@H]2O[C@H](CO)[C@@H](N)[C@H](O)[C@H]2O)OC2C[C@@H](N)[C@@H](O[C@H]3[C@H](O)[C@@H](O)[C@H](N)C[C@@H]3N)OC2[C@@H]1O (some centres unmarked) [Apramycin, apramycin, reference compound]
- lowest concentration which gave an inhibition zone [5]: 50 µg/mL
- lowest concentration which gave an inhibition zone [9]: 50 µg/mL

SMILES: O=C1CN(/N=C/c2ccc([N+](=O)[O-])o2)C(=O)N1 [Nitrofurantoin, nitrofurantoin, reference compound]
- lowest concentration which gave an inhibition zone [5]: 500 µg/mL
- lowest concentration which gave an inhibition zone [9]: 500 µg/mL

SMILES: O=C(N[C@H](C(=O)O)[C@H](O)Cc1ccc([N+](=O)[O-])cc1)c1cccc(O)c1O [compound 5, β-lactone hydrolysed obafluorin]
- antibacterial activity (in words) [3]: inactive

SMILES: O=C(N[C@H](C(=O)O)[C@H](O)Cc1ccc([N+](=O)[O-])cc1)c1ccccc1 [compound 7, β-lactone hydrolysed BA-obafluorin]
- antibacterial activity (in words) [3]: inactive

SMILES: NC[C@H]1O[C@H](O[C@H]2[C@H](O)[C@@H](O[C@H]3O[C@H](CO)[C@@H](O)[C@H](N)[C@H]3O)[C@H](N)C[C@@H]2N)[C@H](O)[C@@H](O)[C@@H]1O [Kanamycin, kanamycin, reference compound]
- lowest concentration which gave an inhibition zone [5]: 50 µg/mL
- lowest concentration which gave an inhibition zone [9]: 50 µg/mL

SMILES: O=C(N[C@@H]1C(=O)O[C@@H]1Cc1ccc([N+](=O)[O-])cc1)c1ccccc1O [compound 2, 2-HBA-obafluorin]
- MIC ([1]; NR698): 1000 µg/mL (≈ 2920 µM)
- MIC [1, 10]: > 1000 µg/mL
- IC100 ([2]; enzyme 10 nM): 10 µM
- MIC [3, 11]: 1000 µg/mL (≈ 2920 µM)
- MIC [3, 12]: > 1000 µg/mL
- MIC [4, 13]: > 1000 µg/mL
- MIC [4, 12]: > 1000 µg/mL
- MIC [5, 14]: > 1000 µg/mL
- MIC [5, 12]: > 1000 µg/mL
- MIC [6, 15]: 1000 µg/mL (≈ 2920 µM)
- MIC [6, 12]: 1000 µg/mL (≈ 2920 µM)
- effect of added Fe^3+ on hydrolysis (in words) [7]: no effect
- hydrolysis of β-lactone (in words) [7]: mainly hydrolysed
- concentration at which complete inhibition was observed [8]: 10 000 nM
- IC50 ([8]; read-out: IC50): 3700 ± 700 nM
- fold less potent than 1 [8]: approximately 100 fold

SMILES: [H]/N=C(/N)N[C@H]1[C@H](O)[C@@H](O)[C@H](O[C@@H]2O[C@@H](C)[C@](O)(C=O)[C@H]2O[C@@H]2O[C@@H](CO)[C@H](O)[C@@H](O)[C@@H]2NC)[C@@H](N/C(N)=N\[H])[C@@H]1O [Streptomycin, streptomycin, reference compound]
- lowest concentration which gave an inhibition zone [5]: 50 µg/mL
- lowest concentration which gave an inhibition zone [9]: 50 µg/mL
